# Laboratory results published in US20050063989A1, “Ion channel hybrid proteins as electrical sensors and use thereof” (COMMISSARIAT A L'ENERGIE ATOMIQUE, priority 2003, published 2005).
# Experiments:
# MRP1-Kir6.2 channels = molecular target: T1, MRP1-Kir6.2 channels (Homo sapiens, UniProt P33527, M117T); assay: Inside-out patch-clamp of MRP1-Kir6.2 fusion channels expressed in Xenopus oocytes; format: cell-based, mouse Kir6.2
# T1 construct: expressed in transfected cells; host or cells: Xenopus laevis oocytes injected with in vitro transcribed mRNA; excised inside-out patches
# Protocol: (§1) mRNAs coding Kir6.2 (˜2 ng) and wild-type SURs (˜6 ng) or mRNAs coding the fusion constructs (˜8 ng) were co-injected into defoliculated Xenopus laevis oocytes. Injected oocytes were stored at 19° C. in Barth's solution (in mM: 1 KCl, 0.82 MgSO4, 88 NaCl, 2.4 NaHCO3, 0.41 CaCl2, 0.3 Ca(NO3)2, 16 HEPES, pH 7.4) with 100 U/ml penicillin, 100 μg/ml streptomycin, and 100 μg/ml gentamycin.
# Two to 15 days after injection, oocytes were devitellinized and recombinant KATP channels were characterized by the patch-clamp technique in the excised inside-out configuration (Hamill et al., Arch. Eur. J. Physiol., 1981, 391, 85-100). Patch pipettes (2-10 MΩ) contained 154 mM K^+, 146 mM Cl^−, 5 MM Mg^2+, and 10 mM PIPES (pH 7.1). The cytoplasmic face of the patch was bathed in solutions which all contained 174 mM K^+, 40 mM Cl^−, 1 mM EGTA, 1 Mg^2+, 10 mM PIPES (pH 7.1), and methanesulfonate (approximately, 160 mM, depending on the ATP and ADP amounts added—as the remaining anions. ATP and ADP (potassium salt; Sigma), SR47063 (20 mM stock in DMSO; Sanofi Recherche), diazoxide (100 mM stock in DMSO; Sigma) and P1075 (20 mM stock in DMSO; Leo Pharmaceutical Products) were added as specified. The membrane potential was maintained at −50 mV. Experiments were conducted at room temperature (22-24° C.). […]
# SUR2A-Kir6.2 channels = molecular target: T2, SUR2A-Kir6.2 channels (Rattus norvegicus, UniProt Q63563); assay: Inside-out patch-clamp of SUR2A-Kir6.2 fusion channels expressed in Xenopus oocytes; format: cell-based, mouse Kir6.2; conditions: for Effect of K-channel opener on SUR2A-Kir6.2 channels: opener 10 μM, in the presence of partially-inhibiting ATP (100 μM), -50 mV
# T2 construct: expressed in transfected cells; host or cells: Xenopus laevis oocytes injected with in vitro transcribed mRNA; excised inside-out patches
# T2 sequence (Q63563 with tags, fused parts or gaps): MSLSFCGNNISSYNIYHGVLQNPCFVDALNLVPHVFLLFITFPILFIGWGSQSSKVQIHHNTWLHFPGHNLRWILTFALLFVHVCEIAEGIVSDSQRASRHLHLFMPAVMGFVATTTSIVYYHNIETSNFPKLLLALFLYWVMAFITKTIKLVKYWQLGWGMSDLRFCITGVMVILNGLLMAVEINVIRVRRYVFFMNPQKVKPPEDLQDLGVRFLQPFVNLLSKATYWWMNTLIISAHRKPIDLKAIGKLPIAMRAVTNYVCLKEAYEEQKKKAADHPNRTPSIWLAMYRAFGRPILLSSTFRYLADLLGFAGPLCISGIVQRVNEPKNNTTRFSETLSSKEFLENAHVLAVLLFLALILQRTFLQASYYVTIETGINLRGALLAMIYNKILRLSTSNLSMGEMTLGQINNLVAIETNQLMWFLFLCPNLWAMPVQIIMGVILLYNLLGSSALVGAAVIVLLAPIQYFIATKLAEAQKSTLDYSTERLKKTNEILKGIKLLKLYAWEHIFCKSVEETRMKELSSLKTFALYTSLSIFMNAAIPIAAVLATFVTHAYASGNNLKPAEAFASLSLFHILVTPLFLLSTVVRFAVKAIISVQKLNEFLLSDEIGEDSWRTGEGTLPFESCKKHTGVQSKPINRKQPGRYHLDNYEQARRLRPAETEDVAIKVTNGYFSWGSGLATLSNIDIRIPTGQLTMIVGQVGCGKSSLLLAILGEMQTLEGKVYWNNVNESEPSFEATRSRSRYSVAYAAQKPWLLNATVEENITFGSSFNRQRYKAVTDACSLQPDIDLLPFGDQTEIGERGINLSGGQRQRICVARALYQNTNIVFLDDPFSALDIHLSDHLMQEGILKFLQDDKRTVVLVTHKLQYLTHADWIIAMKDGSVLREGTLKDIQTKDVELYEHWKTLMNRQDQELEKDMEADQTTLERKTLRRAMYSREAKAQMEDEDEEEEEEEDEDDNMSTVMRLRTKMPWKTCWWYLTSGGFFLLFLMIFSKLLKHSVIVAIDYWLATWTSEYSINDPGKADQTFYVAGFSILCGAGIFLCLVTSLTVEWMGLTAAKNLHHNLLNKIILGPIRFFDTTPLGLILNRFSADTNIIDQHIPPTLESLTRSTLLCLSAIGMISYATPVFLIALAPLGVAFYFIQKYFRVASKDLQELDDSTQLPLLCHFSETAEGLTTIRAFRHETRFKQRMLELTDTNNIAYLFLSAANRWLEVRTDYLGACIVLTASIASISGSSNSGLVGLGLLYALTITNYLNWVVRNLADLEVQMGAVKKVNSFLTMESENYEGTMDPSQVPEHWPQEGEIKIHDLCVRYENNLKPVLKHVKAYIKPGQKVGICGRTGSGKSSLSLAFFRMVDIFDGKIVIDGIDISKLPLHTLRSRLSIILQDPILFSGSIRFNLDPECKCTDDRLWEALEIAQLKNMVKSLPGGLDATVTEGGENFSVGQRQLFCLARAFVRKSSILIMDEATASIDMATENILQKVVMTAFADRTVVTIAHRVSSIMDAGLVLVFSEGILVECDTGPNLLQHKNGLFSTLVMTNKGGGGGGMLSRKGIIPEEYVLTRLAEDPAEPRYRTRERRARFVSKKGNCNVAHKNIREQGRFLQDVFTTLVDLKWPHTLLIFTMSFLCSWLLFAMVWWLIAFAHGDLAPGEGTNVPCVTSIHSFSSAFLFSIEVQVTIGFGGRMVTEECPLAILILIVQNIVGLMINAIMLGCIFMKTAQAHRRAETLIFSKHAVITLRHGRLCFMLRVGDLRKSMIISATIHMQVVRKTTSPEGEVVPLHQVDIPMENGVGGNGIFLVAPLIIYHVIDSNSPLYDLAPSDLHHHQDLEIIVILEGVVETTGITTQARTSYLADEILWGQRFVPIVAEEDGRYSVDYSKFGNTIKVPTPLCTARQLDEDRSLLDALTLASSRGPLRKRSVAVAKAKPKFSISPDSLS
# Protocol: as §1
# (§2) Two to 15 days after injection, oocytes were devitellinized and recombinant KATP channels were characterized by the patch-clamp technique in the excised inside-out configuration (Hamill et al., Arch. Eur. J. Physiol., 1981, 391, 85-100). Patch pipettes (2-10 MΩ) contained 154 mM K^+, 146 mM Cl^−, 5 MM Mg^2+, and 10 mM PIPES (pH 7.1). The cytoplasmic face of the patch was bathed in solutions which all contained 174 mM K^+, 40 mM Cl^−, 1 mM EGTA, 1 Mg^2+, 10 mM PIPES (pH 7.1), and methanesulfonate (approximately, 160 mM, depending on the ATP and ADP amounts added—as the remaining anions. ATP and ADP (potassium salt; Sigma), SR47063 (20 mM stock in DMSO; Sanofi Recherche), diazoxide (100 mM stock in DMSO; Sigma) and P1075 (20 mM stock in DMSO; Leo Pharmaceutical Products) were added as specified. The membrane potential was maintained at −50 mV. Experiments were conducted at room temperature (22-24° C.).
# (§3) Applications of the various solutions to the intracellular face of the patch was performed using a RSC-100 rapid-solution-changer (Bio-Logic). Analog signals were filtered at 300 Hz and sampled at 1 kHz. Slow fluctuations of the no-channel-open baseline of the signal were removed by interactive fitting of the baseline with a spline curve and subtraction of this fit from the signal. Acquisition, analysis, and presentation were performed with in-house software.
# SUR1-Kir6.2 channels = molecular target: T3, SUR1-Kir6.2 channels (UniProt Q09427+Q61743); assay: Inside-out patch-clamp of SUR1-Kir6.2 fusion channels expressed in Xenopus oocytes; format: cell-based, hamster SUR1, mouse Kir6.2
# T3 construct: expressed in transfected cells; host or cells: Xenopus laevis oocytes injected with in vitro transcribed mRNA; excised inside-out patches
# T3 sequence (Q09427+Q61743 fused): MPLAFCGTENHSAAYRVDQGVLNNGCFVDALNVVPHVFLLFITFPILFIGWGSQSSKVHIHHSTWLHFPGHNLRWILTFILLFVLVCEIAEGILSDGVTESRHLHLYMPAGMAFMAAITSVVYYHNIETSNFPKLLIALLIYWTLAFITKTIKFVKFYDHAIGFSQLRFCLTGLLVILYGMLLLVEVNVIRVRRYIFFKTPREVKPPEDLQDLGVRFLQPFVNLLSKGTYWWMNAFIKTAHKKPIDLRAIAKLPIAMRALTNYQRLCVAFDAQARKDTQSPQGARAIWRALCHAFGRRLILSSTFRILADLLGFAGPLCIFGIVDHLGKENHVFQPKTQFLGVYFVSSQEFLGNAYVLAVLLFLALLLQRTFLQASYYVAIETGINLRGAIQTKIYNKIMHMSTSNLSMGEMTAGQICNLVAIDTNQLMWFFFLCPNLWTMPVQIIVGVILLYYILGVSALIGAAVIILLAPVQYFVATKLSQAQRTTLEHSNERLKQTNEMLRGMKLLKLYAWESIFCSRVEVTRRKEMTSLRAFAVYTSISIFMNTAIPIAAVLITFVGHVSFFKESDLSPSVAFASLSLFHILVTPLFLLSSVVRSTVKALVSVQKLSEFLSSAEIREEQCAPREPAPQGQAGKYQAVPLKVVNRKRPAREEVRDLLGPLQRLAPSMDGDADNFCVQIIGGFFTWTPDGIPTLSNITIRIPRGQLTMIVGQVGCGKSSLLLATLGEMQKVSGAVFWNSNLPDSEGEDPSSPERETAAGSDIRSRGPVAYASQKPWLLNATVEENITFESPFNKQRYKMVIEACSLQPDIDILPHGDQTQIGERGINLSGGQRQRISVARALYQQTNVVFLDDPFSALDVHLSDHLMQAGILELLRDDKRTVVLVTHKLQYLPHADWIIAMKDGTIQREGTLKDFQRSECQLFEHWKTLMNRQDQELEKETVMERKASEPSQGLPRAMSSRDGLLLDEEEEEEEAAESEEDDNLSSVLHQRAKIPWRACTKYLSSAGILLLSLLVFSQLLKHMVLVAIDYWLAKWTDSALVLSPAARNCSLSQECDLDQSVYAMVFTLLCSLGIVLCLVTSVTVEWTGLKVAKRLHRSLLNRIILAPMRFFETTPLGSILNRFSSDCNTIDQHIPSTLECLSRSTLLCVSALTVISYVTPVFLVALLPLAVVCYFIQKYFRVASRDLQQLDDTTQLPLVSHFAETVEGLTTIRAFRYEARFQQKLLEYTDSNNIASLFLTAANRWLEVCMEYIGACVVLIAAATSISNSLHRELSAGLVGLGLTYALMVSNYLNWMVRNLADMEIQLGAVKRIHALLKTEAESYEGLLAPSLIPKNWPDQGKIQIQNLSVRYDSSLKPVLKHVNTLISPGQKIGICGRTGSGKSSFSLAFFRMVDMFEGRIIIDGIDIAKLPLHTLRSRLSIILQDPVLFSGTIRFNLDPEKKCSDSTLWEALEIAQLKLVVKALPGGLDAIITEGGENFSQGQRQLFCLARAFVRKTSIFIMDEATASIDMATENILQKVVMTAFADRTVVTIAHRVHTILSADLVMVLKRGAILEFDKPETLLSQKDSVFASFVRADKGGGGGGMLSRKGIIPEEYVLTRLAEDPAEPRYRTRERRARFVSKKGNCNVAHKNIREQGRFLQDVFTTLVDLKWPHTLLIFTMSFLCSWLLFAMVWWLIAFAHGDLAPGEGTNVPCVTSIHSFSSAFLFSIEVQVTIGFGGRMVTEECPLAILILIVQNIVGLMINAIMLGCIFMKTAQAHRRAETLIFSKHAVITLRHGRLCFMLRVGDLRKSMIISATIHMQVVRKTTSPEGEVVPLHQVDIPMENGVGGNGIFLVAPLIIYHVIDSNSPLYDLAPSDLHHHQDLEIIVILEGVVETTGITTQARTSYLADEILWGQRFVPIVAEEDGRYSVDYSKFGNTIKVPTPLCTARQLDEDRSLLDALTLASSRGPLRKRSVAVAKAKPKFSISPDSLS
# Protocol: as §1, §2, §3
# MRP1-Kir6.2KR370AA = assay: Inside-out patch-clamp of MRP1-Kir6.2KR370AA channels expressed in Xenopus oocytes; format: cell-based, human MRP1, mouse Kir6.2; conditions: compared with MRP1-Kir6.2
# From the text: (§4) Removal of the RKR endoplasmic reticulum retention signal of Kir6.2 was accomplished either by deletion of the last 26 or 36 residues of the C-terminal extremity (Tucker et al., Nature, 1997, 387: 179-183) through introduction of a premature stop codon at the correct position, or by site-directed mutagenesis of RKR to RAA (i.e., K370A and R371A). The resulting constructs, named Kir6.2Δ26, Kir6.2ΔC36, and Kir6.2KR370AA, were created by mutagenesis amplification (QuickChange site-directed mutagenesis kit, Stratagene). The sequences corresponding to the different constructs are as presented in Table 1: SUR2A-Kir6.2ΔC36 (SEQ ID NO: 3), MRP1-Kir6.2ΔC36 (SEQ ID NO: 4), YCF1-Kir6.2ΔC36 (SEQ ID NO: 5) and MRP1-Kir6.2[KR370AA] (SEQ ID NO: 6).
# as §1
# (§5) Two to 15 days after injection, oocytes were devitellinized and recombinant KATP channels were characterized by the patch-clamp technique in the excised inside-out configuration (Hamill et al., Arch. Eur. J. Physiol., 1981, 391, 85-100). […]
# Kir6.2ΔC36 channels = molecular target: T4, Kir6.2ΔC36 channels (Mus musculus, UniProt Q61743); assay: Inside-out patch-clamp of Kir6.2ΔC36 channels expressed alone in Xenopus oocytes; format: cell-based
# T4 construct: expressed in transfected cells; host or cells: Xenopus laevis oocytes; excised inside-out patches
# T4 sequence (Q61743 1-354 limits assumed): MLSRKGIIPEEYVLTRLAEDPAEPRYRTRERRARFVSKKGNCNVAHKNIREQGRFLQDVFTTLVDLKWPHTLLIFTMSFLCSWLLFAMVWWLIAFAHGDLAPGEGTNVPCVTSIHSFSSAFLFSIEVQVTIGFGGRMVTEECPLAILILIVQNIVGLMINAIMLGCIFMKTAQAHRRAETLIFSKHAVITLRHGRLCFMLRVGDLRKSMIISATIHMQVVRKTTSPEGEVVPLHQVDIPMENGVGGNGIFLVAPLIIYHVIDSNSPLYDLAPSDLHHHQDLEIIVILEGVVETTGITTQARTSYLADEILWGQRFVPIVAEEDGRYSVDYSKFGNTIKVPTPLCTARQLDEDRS
# From the text: as §4, §1, §5
# YCF1-Kir6.2ΔC36 = molecular target: T5, YCF1-Kir6.2ΔC36 (UniProt P39109+Q61743); assay: Inside-out patch-clamp of YCF1-Kir6.2ΔC36 channels expressed in Xenopus oocytes; format: cell-based, yeast YCF1, mouse Kir6.2
# T5 construct: expressed in transfected cells; host or cells: Xenopus laevis oocytes injected with in vitro transcribed mRNA; excised inside-out patches
# From the text: as §4, §1, §5
# Xenopus oocytes = assay: Density of active fusion channels: ATP-inhibitable current after patch excision; format: cell-based, Xenopus laevis
# Protocol: as §1, §2, §3
# [1] = ADP at submillimolar concentrations
# [2] = total current blocked by 2 mM ATP after patch excision
molecule,measurement,setting,value
Nc1ncnc2c1ncn2[C@@H]1O[C@H](COP(=O)(O)OP(=O)(O)O)[C@@H](O)[C@H]1O [ADP],Effect of ADP on MRP1-Kir6.2 currents,"MRP1-Kir6.2 channels; ADP 100 μM and 300 μM, in the presence of 100 μM ATP",reduced in a dose-dependent manner
same,Effect of ADP on SUR2A-Kir6.2 fusion channels,SUR2A-Kir6.2 channels; [1],activation
same,Effect of ADP on SUR1-Kir6.2 fusion channels,SUR1-Kir6.2 channels; [1],activation
same,Sensitivity of MRP1-Kir6.2KR370AA to ADP,MRP1-Kir6.2KR370AA,could not be distinguished from the non-mutated MRP1-Kir6.2 protein
same,Effect of ADP on Kir6.2ΔC36 (SUR-less) channels,Kir6.2ΔC36 channels,inhibited
Nc1ncnc2c1ncn2[C@@H]1O[C@H](COP(=O)(O)OP(=O)(O)OP(=O)(O)O)[C@@H](O)[C@H]1O [ATP],Sensitivity of MRP1-Kir6.2 channels to inhibition by ATP,MRP1-Kir6.2 channels,less sensitive to inhibition by ATP than either SUR-Kir6.2 fusions or wild-type channels
same,Sensitivity of SUR2A-Kir6.2 channels to ATP,SUR2A-Kir6.2 channels,high sensitivity
same,Sensitivity of SUR1-Kir6.2 channels to ATP,SUR1-Kir6.2 channels,high sensitivity
same,Effect of ATP on YCF1-Kir6.2ΔC36 currents,YCF1-Kir6.2ΔC36,ATP-sensitive currents
same,Sensitivity of MRP1-Kir6.2KR370AA to ATP,MRP1-Kir6.2KR370AA,could not be distinguished from the non-mutated MRP1-Kir6.2 protein
CCC(C)(C)N=C(NC#N)Nc1cccnc1 [P1075],Effect of K-channel opener on SUR2A-Kir6.2 channels,SUR2A-Kir6.2 channels,activated
CC1(C)C=C(n2ccccc2=NC#N)c2cc([N+](=O)[O-])ccc2O1 [SR47063],Effect of K-channel opener on SUR2A-Kir6.2 channels,SUR2A-Kir6.2 channels,activated
CC1=NS(=O)(=O)c2cc(Cl)ccc2N1 [diazoxide],Effect of opener on SUR1-Kir6.2 channels,SUR1-Kir6.2 channels; diazoxide 300 μM,activated
MRP1-Kir6.2: fusion of human MRP1 C-terminus to mouse Kir6.2 N-terminus with hexaglycine spacer,"Patch current, fold lower than SUR1-Kir6.2",Xenopus oocytes; [2],7 fold
same,"Patch current, fold lower than SUR2A-Kir6.2",Xenopus oocytes; [2],5 fold
"YCF1-Kir6.2: fusion of yeast YCF1 with mouse Kir6.2, hexaglycine spacer",ATP-inhibitable current of the construct after patch excision,Xenopus oocytes,no detectable exogenous current
YCF1-Kir6.2ΔC36: YCF1-Kir6.2 fusion with last 36 residues truncated to remove the RKR signal,ATP-inhibitable current of the construct after patch excision,Xenopus oocytes,noticeably small compared to the other constructs
